{"source": "patent US20160279079A1", "about": "“COMPOSITIONS AND METHODS FOR TREATING BONE DISEASES” (INDIANA UNIVERSITY RESEARCH AND TECHNOLOGY CORPORATION, priority 2013, published 2016)", "type_in_all_cases": "cell-based, mouse", "key": {"[1]": {"test_system": "osteoclast-associated receptor (OSCAR)", "experiment": "Quantitative real-time PCR, OSCAR mRNA in RAW264.7 cells", "experimental": "METHOD EXAMPLE. Quantitative real-time PCR. Total RNA was extracted using an RNeasy Plus mini kit (Qiagen, Germantown, Md., USA). Reverse transcription was conducted with high capacity cDNA reverse transcription kits (Applied Biosystems, Carlsbad, Calif., USA), and quantitative real-time PCR was performed using ABI 7500 with Power SYBR green PCR master mix kits (Applied Biosystems). We evaluated mRNA levels of ATF4, Osteocalcin (OCN), NFATcl, c-Fos, tartrate-resistant acid phosphatase (TRAP), and osteoclast-associated receptor (OSCAR) with the PCR primers listed in Table 1. GAPDH was used for internal control. The relative mRNA abundance for the selected genes with respect to the level of GAPDH mRNA was expressed as a ratio of Streated/Scontrol, where Streated=mRNA level for the cells treated with chemical agents, and Scontrol=mRNA level for control cells.\nMETHOD EXAMPLE. Partial suppression of mRNA levels of NFATcl, c-Fos, TRAP, and OSCAR by salubrinal. […] On day 2, for instance, the RANKL-driven increase was 9.4±0.5 fold (NFATcl), 1.9±0.1 fold (c-fos), 165±4.2 fold (TRAP), and 467±22 fold (OSCAR). The reduction by 20 μM salubrinal was 46% (NFATcl), 32% (c-fos), 35% (TRAP), and 21% (OSCAR) (FIG. 5A).\n(§1) METHOD EXAMPLE. Reduction of RANKL-induced NFATcl, c-Fos, TRAP, and OSCAR by guanabenz. […] The normalized level of “1” was defined as the level for the cells that were not treated with RANKL without administration of guanabenz."}, "NFATc1 [2]": {"test_system": "NFATc1", "experiment": "Western immunoblotting, NFATc1 expression in RAW264.7 cells", "details": "for expression of NFATc1: absence of RANKL administration", "experimental": "METHOD EXAMPLE. Downregulation of NFATcl in RAW264.7 cells by salubrinal. NFATcl is a transcription factor critical for activating osteoclastogenesis. […] The RANKL-induced expression of NFATcl was reduced by administration of 5-20 μM salubrinal on both days, and the effect of salubrinal was dose dependent (FIG. 4).\nas §1\n(§2) METHOD EXAMPLE. Western Immunoblotting. Cells were lysed in a radioimmunoprecipitation assay (RIPA) buffer containing protease inhibitors (Santa Cruz Biotechnology, Santa Cruz, Calif., USA) and phosphatase inhibitors (Calbiochem, Billerica, Mass., USA). Isolated proteins were fractionated using 10-15% SDS gels and electro-transferred to Immobilon-P membranes (Millipore, Billerica, Mass., USA). The membrane was incubated for 1 h with primary antibodies followed by 45 min incubation with goat anti-rabbit or anti-mouse IgG conjugated with horseradish peroxidase (Cell Signaling, Danvers, Mass., USA). We used antibodies against ATF4, NFATcl (Santa Cruz), p-eIF2α (Thermo Scientific, Waltham, Mass., USA), eIF2α, caspase 3, cleaved caspase 3, p38 and p-p38 mitogen activated protein kinase (MAPK), extracellular signal-regulated kinase (ERK) and p-ERK, nuclear factor kappa B (NFκB) p65 and p-NFκB p65 (Cell Signaling), and β-actin (Sigma). Protein levels were assayed using a SuperSignal west femto maximum sensitivity substrate (Thermo Scientific), and signal intensities were quantified with a luminescent image analyzer (LAS-3000, Fuji Film, Tokyo, Japan).\nMETHOD EXAMPLE. Temporal profile of p-eIF2α and NFATcl. […] Note that the normalized level of “1” in FIG. 6C was defined as the level for the cells that were not treated with RANKL without administration of guanabenz."}, "NFATc1 [3]": {"test_system": "NFATc1", "experiment": "NFATc1 expression after RNA interference for eIF2α in RAW264.7 cells", "details": "for reduction of NFATc1: 20 μM", "experimental": "as §2\nMETHOD EXAMPLE. Knockdown of ATF4 and eIF2α by siRNA. Cells were treated with siRNA specific to ATF4 and eIF2α (Life Technologies). Selected target sequences for knockdown of ATF4 and eIF2α were: ATF4, 5′-GCU GCU UAC AUU ACU CUA A-3′; and eIF2α, 5′-CGG UCA AAA UUC GAG CAG A-3′. As a nonspecific control, a negative siRNA (Silencer Select #1, Life Technologies) was used. Cells were transiently transfected with siRNA for ATF4, eIF2α or control in Opti-MEM I medium with Lipofectamine RNAiMAX (Life Technologies). Six hours later, the medium was replaced by regular culture medium. The efficiency of silencing was assessed with immunoblotting or quantitative PCR 48 h after transfection.\nMETHOD EXAMPLE. Reduction in salubrinal/guanabenz-driven suppression of NFATcl expression by RNA interference for eTF2α. To evaluate the effects of eIF2α on the expression level of NFATcl, RNA interference specific for eIF2α together with a non-specific control (NC) was used (FIG. 10). […] However, the expression of NFATcl was reduced only by 20% in the cells transfected with eIF2α siRNA."}, "p-eIF2α": {"test_system": "p-eIF2α", "experiment": "Western immunoblotting, p-eIF2α in MC3T3 E1-14 cells", "experimental": "as §2\nMETHOD EXAMPLE. ATF4-mediated elevation of osteocalcin mRNA in MC3T3 E1-14 cells. Salubrinal is an inhibitor of de-phosphorylation of eIF2α. […]"}, "[4]": {"details": "cells transfected with the control siRNA"}}, "data": [{"compound": "N=C(N)N/N=C/c1c(Cl)cccc1Cl", "note": "[guanabenz]", "values": [{"measurement": "OSCAR mRNA level", "setting": "[1]; 20 μM guanabenz, 2 days after RANKL", "value": "reduced"}, {"measurement": "OSCAR mRNA level", "setting": "[1]; 5 and 10 μM guanabenz, 2 days after RANKL", "value": "effective in reducing"}, {"measurement": "temporal expression profile of NFATc1", "setting": "NFATc1 [2]; 20 μM guanabenz, with RANKL", "value": "partially suppressed in 8 h"}, {"measurement": "expression of NFATc1", "setting": "NFATc1 [2]", "value": "did not significantly alter"}, {"measurement": "induction of NFATc1 by RANKL", "setting": "NFATc1 [2]; guanabenz dose response, 2 days after RANKL", "value": "suppressed by guanabenz in a dose dependent manner"}, {"measurement": "suppressive effect on NFATc1 level", "setting": "NFATc1 [3]; 20 μM guanabenz, transfection of eIF2α siRNA", "value": "abolished the suppressive effect"}, {"measurement": "reduction of NFATc1", "setting": "NFATc1 [3]; [4]", "value": 43, "unit": "%"}, {"measurement": "p-eIF2α", "setting": "p-eIF2α; guanabenz", "value": "increase in p-eIF2α and ATF4"}]}, {"compound": "O=C(/C=C/c1ccccc1)NC(NC(=S)Nc1cccc2cccnc12)C(Cl)(Cl)Cl", "note": "(stereo not drawn) [salubrinal]", "values": [{"measurement": "reduction of OSCAR mRNA level", "setting": "[1]; 20 μM salubrinal, day 2 after RANKL", "value": 21, "unit": "%"}, {"measurement": "OSCAR mRNA level", "setting": "[1]; 0.1-1 μM salubrinal, with RANKL, day 2 and day 4", "value": "did not contribute to significant reduction"}, {"measurement": "reduction of the level of NFATc1", "setting": "NFATc1 [2]; 20 μM salubrinal, 8 h, with RANKL", "value": 48, "unit": "%"}, {"measurement": "reduction of the level of NFATc1", "setting": "NFATc1 [2]; 20 μM salubrinal, 24 h, with RANKL", "value": 44, "unit": "%"}, {"measurement": "level of NFATc1", "setting": "NFATc1 [2]; 20 μM salubrinal, early period (2-4 h), with RANKL", "value": "did not alter"}, {"measurement": "RANKL-induced expression of NFATc1", "setting": "NFATc1 [2]; 5-20 μM salubrinal, day 2 and day 4, dose dependent", "value": "reduced"}, {"measurement": "expression of NFATc1", "setting": "NFATc1 [2]", "value": "did not significantly alter"}, {"measurement": "reduction of NFATc1", "setting": "NFATc1 [3]; cells transfected with eIF2α siRNA", "value": 20, "unit": "%"}, {"measurement": "reduction of NFATc1", "setting": "NFATc1 [3]; [4]", "value": 56, "unit": "%"}, {"measurement": "phosphorylation of eIF2α", "setting": "p-eIF2α; 5 μM salubrinal", "value": "elevated phosphorylation of eIF2α"}]}]}
